Experimental findings from PMC7994712 (Nature Communications, 2021) are described below.

Structures are written as SMILES. pIC50: −log10 of the molar value.

Data set [1] concerns the target T1, SSTR1 (Homo sapiens, UniProt P30872).
T1 construct: host or cells: CHO-K1
Description: Radio-ligand binding assay, SSTR1. How it is done: (§1) Graphical and tabular representation of the percentage inhibition of specific binding, as IC50 (nM) binding values for the analogues against the five SSTR1-SSTR5 is represented in Supplementary Fig. 1b and Supplementary Table 1. […] IC50 values were determined by a non-linear, least squares regression analysis using Prism 9 (GraphPad Software, USA), using the Dose-response inhibition (three-parameters) model. […]
(§2) (SSTR1-SSTR5), using a Radio-ligand Binding Assay (Supplementary Figure 1b). Cells were incubated in HEPES buffer pH 7.4 with the new analogues of Cortistatin at 10 different concentrations in a range […]
(§3) specifically bound (performed at Eurofins Panlabs, Inc.). The radioactivity obtained in the absence of SST14 is considered as total binding and that obtained in the presence of 1 µM of SST14 is considered as nonspecific binding. Specific binding was considered as the difference between total and nonspecific.
(§4) Biochemical assay results are presented as the percent inhibition of specific bindin g (% inhib ition) as a […]
(§5) part of each binding assay with the five (SSTR1 -SS T R5 ) . I C50 values were determined by a non-linear, least squares regression analysis using Prism 9 (GraphPad Software, USA), using the Dose -response inhibit ion (t hree-parameters) model.

The target in data set [2] is T2, SSTR2 (Homo sapiens, UniProt P30874).
T2 construct: host or cells: CHO-K1
T2 sequence (P30874 whole entry): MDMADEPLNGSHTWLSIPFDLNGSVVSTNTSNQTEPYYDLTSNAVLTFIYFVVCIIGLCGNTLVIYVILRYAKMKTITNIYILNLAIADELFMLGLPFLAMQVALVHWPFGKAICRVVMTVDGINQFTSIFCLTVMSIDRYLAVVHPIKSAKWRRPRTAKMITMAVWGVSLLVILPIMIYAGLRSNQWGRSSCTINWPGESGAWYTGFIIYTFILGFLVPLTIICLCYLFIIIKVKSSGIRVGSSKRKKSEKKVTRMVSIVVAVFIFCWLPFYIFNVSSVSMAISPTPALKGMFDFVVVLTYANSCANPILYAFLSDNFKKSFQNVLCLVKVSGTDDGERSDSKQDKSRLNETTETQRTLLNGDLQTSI
The data set can be described thus: Radio-ligand binding assay, SSTR2. How it is done: as §1, §2, §3, §4, §5

The target of data set [3] is T3, SSTR3 (Homo sapiens, UniProt P32745).
T3 construct: host or cells: CHO-K1
T3 sequence (P32745 whole entry): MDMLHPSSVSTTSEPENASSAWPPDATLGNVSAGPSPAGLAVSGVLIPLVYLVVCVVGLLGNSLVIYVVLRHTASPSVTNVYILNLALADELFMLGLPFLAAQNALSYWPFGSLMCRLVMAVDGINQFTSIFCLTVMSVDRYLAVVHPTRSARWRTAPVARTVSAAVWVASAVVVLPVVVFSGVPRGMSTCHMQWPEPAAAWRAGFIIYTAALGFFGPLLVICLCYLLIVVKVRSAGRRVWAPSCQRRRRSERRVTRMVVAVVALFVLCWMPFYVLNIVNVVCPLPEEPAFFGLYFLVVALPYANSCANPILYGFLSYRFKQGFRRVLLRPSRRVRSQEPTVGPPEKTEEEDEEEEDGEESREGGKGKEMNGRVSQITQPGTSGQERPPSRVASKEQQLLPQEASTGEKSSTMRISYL
The data set can be described thus: Radio-ligand binding assay, SSTR3. How it is done:
as §1, §2, §3, §4, §5

In data set [4] the target is T4, SSTR5 (Homo sapiens, UniProt P35346).
T4 construct: host or cells: CHO-K1
T4 sequence (P35346 whole entry): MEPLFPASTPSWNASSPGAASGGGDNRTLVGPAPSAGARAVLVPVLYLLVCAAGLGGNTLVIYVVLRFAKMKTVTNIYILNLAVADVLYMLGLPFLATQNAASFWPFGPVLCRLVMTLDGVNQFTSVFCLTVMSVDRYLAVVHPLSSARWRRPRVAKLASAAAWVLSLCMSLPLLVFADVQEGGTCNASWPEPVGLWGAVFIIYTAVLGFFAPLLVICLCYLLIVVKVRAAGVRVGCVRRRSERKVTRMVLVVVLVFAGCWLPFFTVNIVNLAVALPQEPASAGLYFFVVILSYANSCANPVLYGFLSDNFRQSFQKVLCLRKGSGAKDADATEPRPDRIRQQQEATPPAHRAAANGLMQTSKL
The data set can be described thus: Radio-ligand binding assay, SSTR5. The procedure:
as §1, §2, §3, §4, §5

The nature of data set [5]: in vitro. Type of data set: cell-based. The note with it: mouse, peritoneal macrophages stimulated with LPS, Viability of Macrophages (%, vs. Initiation of culture). The procedure: Mouse peritoneal macrophages were cultured in medium (unstimulated) or stimulated with LPS (1 μg/ml) in the absence or presence of Analogue 5 (100 nM). Mouse spleen cells were cultured in medium alone (unstimulated) or stimulated with anti -CD3 a ntib odies (2 μg/ml) in the absence or presence of analogue 5 (100 nM). After 24 hours (macrophages) or 48 hours (spleen cells) of culture, cell viability and apoptosis were determined. The percentage of cell viability relative to the initiation of cell c ult ure was determined using AlamarBlue assay (Thermo Fisher Scientific). The percentage of apoptotic cells was determined by flow cytometric analysis of Annexin Vpositive 7-amino-actinomycin Dnegative cell population (R&D Systems). Data are the mean ± SEM of 5 independe nt cultures performed in duplicates. […]
Treatments were administered in a curative regime as described in Figure 4 and sera were collected 10 days after TNBS infusion. n=8 mice/group. […] Statistical differences between groups were calculated usi ng unpa ired two -tailed Student’s t-test. ****p<0.0001 versus TNBS+saline […]
Total RNA was isolated from colon sections obtained at day 10 after TNBS injection following the manufacturer’s protocol (Tripure, Roche). […] SYBER green quantitative PCR (SensiFast Sybr No-Rox mix, Bioline) was performed as described in the […]

Data set [6] in a line: In vitro stability of peptides in human plasma (half-life in serum). The note with it: serum half-life of analogue 5 vs native CST.
Description: The peptides were dissolved in water at a concentration of 6 mg/mL and warmed up to 37 °C. Human plasma was obtained as a lyophilised solid (K3 EDTA Plasma, BBI solutions, code S112-1), reconstituted with sterile 0.9% sodium chloride solution and stored at −20 °C. Human plasma was thawed and incubated at 37 °C before use.
The peptides were incubated in 90% human plasma at 37 °C for different times and then precipitated with two volume equivalents of methanol. […] The supernatant was filtered with a 0.45-µm PVDF filter and analysed in triplicate by RP-HPLC using an isocratic method (eluent A = 0.1%TFA in water; eluent B = 0.07%TFA in ACN, column = Kromasil C8, 100 Å, 5 µm, 250 × 4.6 mm, flow = 1 mL/min, wavelength = 220 nm, injection volume = 20 µL, Tª = 60 °C). The disappearance of the peptide was determined in relation to the area of the initial time for calculating its half-life.

T1 sequence (P30872 whole entry): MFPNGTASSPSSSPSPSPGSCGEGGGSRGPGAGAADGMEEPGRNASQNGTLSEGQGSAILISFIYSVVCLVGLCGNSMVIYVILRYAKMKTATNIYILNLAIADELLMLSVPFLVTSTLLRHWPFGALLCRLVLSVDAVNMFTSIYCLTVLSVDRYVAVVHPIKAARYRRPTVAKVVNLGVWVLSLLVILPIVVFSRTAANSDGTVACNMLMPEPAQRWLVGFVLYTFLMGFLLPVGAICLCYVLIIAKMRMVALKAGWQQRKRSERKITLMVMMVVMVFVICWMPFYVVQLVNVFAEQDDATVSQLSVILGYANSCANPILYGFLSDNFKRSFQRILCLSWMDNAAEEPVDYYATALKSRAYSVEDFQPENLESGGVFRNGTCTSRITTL

By pIC50 is commonly meant the IC50 on a negative log10 scale, so that one unit is a factor of ten. A higher pIC50 goes with a low IC50. As usually defined, the viability is the share of living cells, or the viability signal relative to a control. High values mean better survival, low ones a greater loss of cells. `CCCCCCCC(=O)N1CCC[C@H]1C(=O)N[C@H]1CSSC[C@@H](C(=O)N[C@@H](CCCCN)C(=O)O)NC(=O)[C@H](CO)NC(=O)[C@H]([C@@H](C)O)NC(=O)[C@H](Cc2ccccc2)NC(=O)[C@H]([C@@H](C)O)NC(=O)[C@H](CCCCN)NC(=O)[C@@H](Cc2c[nH]c3ccccc23)NC(=O)[C@H](Cc2ccccc2)NC(=O)[C@H](Cc2c(C)cc(C)cc2C)NC(=O)[C@H](CC(N)=O)NC(=O)[C@H](CCCCN)NC1=O` [A5]: the negative logarithm of the IC50 (pIC50) in data set [1] was 7.33; in data set [2], 7.46; in data set [3], 8.29; in data set [4] it was 8.95. In addition, the viability at 24 h, 0.1 µM in data set [5] is 93.2%. Also, the “increase in stability with respect to the native neuropeptide” value in data set [6] is listed as 10 fold.
